# Results reported in US9006450B2 (Boehringer Ingelheim International GmbH, priority 2010, dated 2015).
# Biological target: T1, human ACC2 (Homo sapiens, UniProt O00763)
# T1 construct: made in house; host or cells: insect cells (baculoviral expression system)
# Assay: ACC2 assay, spectrophotometric 384 well assay (NADH-linked, coupled lactate dehydrogenase/pyruvate kinase)
# Format: biochemical
# Details: ACC2 assay, hACC2 construct lacking 128 N-terminal amino acids, 25° C., 340 nm; read-out: IC50
# Summary of the method: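 ADP output tracked via pyruvate kinase/lactate dehydrogenase NADH oxidation, slope at 340 nm over 15 min, 25° C, with 500 μM ATP and 200 μM each acetyl-CoA and NADH. Enzyme: insect-cell-expressed human ACC2, N-terminal 128 residues deleted; pH 7.5 Tris with citrate, KHCO3. IC50 from four-parameter regression versus vehicle and no-acetyl-CoA controls.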
# T1 sequence (O00763 129-2458 limits assumed): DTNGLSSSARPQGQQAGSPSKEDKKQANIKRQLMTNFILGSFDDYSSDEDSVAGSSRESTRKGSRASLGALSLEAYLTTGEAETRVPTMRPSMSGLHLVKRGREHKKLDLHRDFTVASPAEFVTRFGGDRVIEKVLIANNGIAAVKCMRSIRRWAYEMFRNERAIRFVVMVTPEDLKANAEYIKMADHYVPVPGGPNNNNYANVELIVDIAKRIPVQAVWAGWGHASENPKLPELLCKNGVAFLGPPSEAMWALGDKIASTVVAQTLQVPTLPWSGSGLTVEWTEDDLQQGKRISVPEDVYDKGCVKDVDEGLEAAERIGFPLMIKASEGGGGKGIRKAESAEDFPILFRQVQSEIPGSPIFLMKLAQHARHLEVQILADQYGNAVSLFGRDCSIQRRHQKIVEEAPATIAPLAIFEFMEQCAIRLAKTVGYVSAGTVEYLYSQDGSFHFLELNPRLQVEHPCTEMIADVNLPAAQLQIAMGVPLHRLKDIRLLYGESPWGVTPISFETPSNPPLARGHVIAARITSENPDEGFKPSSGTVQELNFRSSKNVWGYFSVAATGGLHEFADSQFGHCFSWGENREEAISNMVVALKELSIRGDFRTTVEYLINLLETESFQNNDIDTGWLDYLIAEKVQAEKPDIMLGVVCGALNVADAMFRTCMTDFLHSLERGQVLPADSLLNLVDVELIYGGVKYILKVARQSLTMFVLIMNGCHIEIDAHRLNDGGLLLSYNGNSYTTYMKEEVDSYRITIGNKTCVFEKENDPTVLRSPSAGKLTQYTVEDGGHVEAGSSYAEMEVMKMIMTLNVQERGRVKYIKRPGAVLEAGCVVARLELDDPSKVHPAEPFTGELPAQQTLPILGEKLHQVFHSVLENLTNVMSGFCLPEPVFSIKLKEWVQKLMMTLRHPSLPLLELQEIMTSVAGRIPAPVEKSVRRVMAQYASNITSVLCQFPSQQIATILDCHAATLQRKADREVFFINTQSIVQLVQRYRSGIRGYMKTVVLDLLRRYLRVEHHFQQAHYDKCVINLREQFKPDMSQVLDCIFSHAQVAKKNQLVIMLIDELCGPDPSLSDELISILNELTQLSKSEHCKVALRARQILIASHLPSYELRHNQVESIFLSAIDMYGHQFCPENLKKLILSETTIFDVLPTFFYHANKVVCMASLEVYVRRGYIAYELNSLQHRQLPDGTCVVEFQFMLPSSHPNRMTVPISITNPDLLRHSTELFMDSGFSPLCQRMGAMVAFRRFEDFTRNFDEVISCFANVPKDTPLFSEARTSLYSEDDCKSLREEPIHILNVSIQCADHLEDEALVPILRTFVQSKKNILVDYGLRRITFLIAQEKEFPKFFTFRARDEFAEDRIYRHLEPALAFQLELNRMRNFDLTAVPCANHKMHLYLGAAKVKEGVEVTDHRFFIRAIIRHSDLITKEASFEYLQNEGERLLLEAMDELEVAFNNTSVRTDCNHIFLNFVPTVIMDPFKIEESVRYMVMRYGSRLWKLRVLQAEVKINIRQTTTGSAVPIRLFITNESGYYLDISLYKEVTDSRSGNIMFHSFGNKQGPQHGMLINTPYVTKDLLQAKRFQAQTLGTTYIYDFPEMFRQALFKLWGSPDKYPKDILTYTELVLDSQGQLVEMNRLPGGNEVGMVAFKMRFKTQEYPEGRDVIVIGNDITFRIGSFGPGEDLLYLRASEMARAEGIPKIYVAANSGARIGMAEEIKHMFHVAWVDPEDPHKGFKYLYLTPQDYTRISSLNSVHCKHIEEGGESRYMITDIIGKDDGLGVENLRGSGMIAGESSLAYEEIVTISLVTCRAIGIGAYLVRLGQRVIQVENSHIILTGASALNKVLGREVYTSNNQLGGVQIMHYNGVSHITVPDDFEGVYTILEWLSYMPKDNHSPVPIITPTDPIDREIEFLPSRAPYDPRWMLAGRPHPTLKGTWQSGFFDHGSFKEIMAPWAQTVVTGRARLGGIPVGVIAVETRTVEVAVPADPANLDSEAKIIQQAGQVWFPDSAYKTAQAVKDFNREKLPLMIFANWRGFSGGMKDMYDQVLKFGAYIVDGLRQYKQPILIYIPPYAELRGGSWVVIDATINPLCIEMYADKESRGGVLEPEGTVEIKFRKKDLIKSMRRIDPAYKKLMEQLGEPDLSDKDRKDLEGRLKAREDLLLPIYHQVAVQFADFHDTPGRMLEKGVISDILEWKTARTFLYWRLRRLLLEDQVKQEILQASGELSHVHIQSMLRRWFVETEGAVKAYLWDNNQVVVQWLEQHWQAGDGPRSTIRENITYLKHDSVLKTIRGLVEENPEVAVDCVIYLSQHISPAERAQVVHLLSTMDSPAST
row,SMILES,IC50 [nM]
1,CCC(C)Oc1ccc(N2CCC(c3ccc([C@H](C)NC(C)=O)cc3)CC2)c(C#N)c1 (stereo partly shown) [Example 4.202],150
2,C[C@H](NC(=O)C1CC1)c1ccc(C2CCN(c3ncc4nc(-c5ccsc5)oc4n3)CC2)cc1 [Example 4.301],390
3,C[C@H](NC(=O)N(C)C)c1ccc(C2CCN(c3ncc4nc(-c5ccsc5)oc4n3)CC2)cc1 [Example 4.302],200
4,C[C@H](NC(=O)C1CC1)c1ccc(C2CCN(c3ncc(C4CC4)cn3)CC2)cc1 [Example 4.303],15600
5,C[C@H](NC(=O)N(C)C)c1ccc(C2CCN(c3ncc(C4CC4)cn3)CC2)cc1 [Example 4.304],240
6,CCCOc1cnc(N2CCC(c3ccc([C@H](C)NC(=O)C4CC4)cc3)CC2)nc1 [Example 4.305],1400
7,CCCOc1cnc(N2CCC(c3ccc([C@H](C)NC(=O)N(C)C)cc3)CC2)nc1 [Example 4.306],120
8,"CCOc1ccc(N2CCC(c3ccc([C@H](C)NC(C)=O)cc3)CC2)nc1 [Example 5.1, (S)—N-{1-[4-(5′-Ethoxy-3,4,5,6-tetrahydro-2H-[1,2′]bipyridinyl-4-yl)-phenyl]-ethyl}-acetamide]",200
9,COc1ccc(N2CCC(c3ccc([C@H](C)NC(C)=O)cc3)CC2)nc1 [Example 5.2],330
10,CCCOc1ccc(N2CCC(c3ccc([C@H](C)NC(C)=O)cc3)CC2)nc1 [Example 5.3],130
11,CC(=O)N[C@@H](C)c1ccc(C2CCN(c3ccc(OCC(C)C)cn3)CC2)cc1 [Example 5.4],90
12,CC(=O)N[C@@H](C)c1ccc(C2CCN(c3ncc4nc(-c5ccsc5)oc4n3)CC2)cc1 [Example 5.5],20
13,CC(=O)N[C@@H](C)c1ccc(C2CCN(c3ncc4nc(-c5ccc(C)s5)oc4n3)CC2)cc1 [Example 5.6],60
14,CC(=O)N[C@@H](C)c1ccc(C2CCN(c3ncc4nc(-c5cccs5)oc4n3)CC2)cc1 [Example 5.7],50
15,CC(=O)N[C@@H](C)c1ccc(C2CCN(c3ccc(C4(S(C)(=O)=O)CC4)cn3)CC2)cc1 [Example 5.8],19200
16,CNC(=O)c1csc(N2CCC(c3ccc([C@H](C)NC(C)=O)cc3)CC2)n1 [Example 5.9],25400
17,CC(=O)N[C@@H](C)c1ccc(C2CCN(c3ncc4nc(-c5ccncc5)oc4n3)CC2)cc1 [Example 5.10],100
18,CC(=O)N[C@@H](C)c1ccc(C2CCN(c3nccc(C(F)(F)F)c3F)CC2)cc1 [Example 5.11],150
19,CC(=O)N[C@@H](C)c1ccc(C2CCN(c3ccc(I)cn3)CC2)cc1 [Example 5.12],220
20,CC(=O)N[C@@H](C)c1ccc(C2CCN(c3cc(Cl)ccn3)CC2)cc1 [Example 5.13],3000
21,CCOC(=O)c1cc(C#N)c(N2CCC(c3ccc([C@H](C)NC(C)=O)cc3)CC2)nc1C(F)(F)F [Example 5.15],4900
22,CC(=O)N[C@@H](C)c1ccc(C2CCN(c3ncc(C(F)(F)F)cc3Cl)CC2)cc1 [Example 5.16],260
23,CC(=O)N[C@@H](C)c1ccc(C2CCN(c3cc(I)ccn3)CC2)cc1 [Example 5.17],1200
24,CC(=O)N[C@@H](C)c1ccc(C2CCN(c3cccc(C#N)n3)CC2)cc1 [Example 5.19],1000

row,SMILES,IC50 [nM]
1,CC(=O)N[C@@H](C)c1ccc(C2CCN(c3nc(-c4ccccc4)cs3)CC2)cc1 [Example 5.20],1200
2,CC(=O)N[C@@H](C)c1ccc(C2CCN(c3ccc(C(=O)C4CC4)cn3)CC2)cc1 [Example 5.21],860
3,CC(=O)N[C@@H](C)c1ccc(C2CCN(c3nc(C)cs3)CC2)cc1 [Example 5.22],2300
4,CC(=O)N[C@@H](C)c1ccc(C2CCN(c3ccc(Br)c(C)n3)CC2)cc1 [Example 5.23],420
5,COc1ccc2nc(N3CCC(c4ccc([C@H](C)NC(C)=O)cc4)CC3)ccc2c1 [Example 5.24],990
6,CC(=O)N[C@@H](C)c1ccc(C2CCN(c3ccc(-c4nc5ccccc5[nH]4)cn3)CC2)cc1 [Example 5.25],2400
7,CC(=O)N[C@@H](C)c1ccc(C2CCN(c3ccnc(C)n3)CC2)cc1 [Example 5.26],9000
8,CC(=O)N[C@@H](C)c1ccc(C2CCN(c3ccc4c(n3)C(=O)CC4)CC2)cc1 [Example 5.27],5200
9,CC(=O)N[C@@H](C)c1ccc(C2CCN(c3cc(C#N)ccn3)CC2)cc1 [Example 5.28],8000
10,CCOC(=O)c1ccnc(N2CCC(c3ccc([C@H](C)NC(C)=O)cc3)CC2)c1C [Example 5.29],170
11,CC(=O)N[C@@H](C)c1ccc(C2CCN(c3ccc(C(=O)Nc4ccccc4)cn3)CC2)cc1 [Example 5.30],180
12,CC(=O)N[C@@H](C)c1ccc(C2CCN(c3ccc4ccc(Cl)cc4n3)CC2)cc1 [Example 5.31],1000
13,CC(=O)N[C@@H](C)c1ccc(C2CCN(c3ccc4c(Cl)cccc4n3)CC2)cc1 [Example 5.32],3800
14,CC(=O)N[C@@H](C)c1ccc(C2CCN(c3nnc(-c4ccccc4)s3)CC2)cc1 [Example 5.33],330
15,CC(=O)N[C@@H](C)c1ccc(C2CCN(c3ccc(C(C)(F)F)cn3)CC2)cc1 [Example 5.34],3200
16,CC(=O)N[C@@H](C)c1ccc(C2CCN(c3ccc(C4(C#N)CC4)cn3)CC2)cc1 [Example 5.35],2800
17,C[C@H](NC(=O)C1CC1)c1ccc(C2CCN(c3nc(Cl)ncc3F)CC2)cc1 [Example 5.36],3100
18,C[C@H](NC(=O)C1CC1)c1ccc(C2CCN(c3ncnc(Cl)c3F)CC2)cc1 [Example 5.37],2900
19,CC(=O)N[C@@H](C)c1ccc(C2CCN(c3ncc(Br)cc3F)CC2)cc1 [Example 5.38],570
20,CC(=O)N[C@@H](C)c1ccc(C2CCN(c3nccc(I)c3C)CC2)cc1 [Example 5.39],340
21,CC(=O)N[C@@H](C)c1ccc(C2CCN(c3ccnc(Cl)c3C)CC2)cc1 [Example 5.40],410
22,CC(=O)N[C@@H](C)c1ccc(C2CCN(c3cc(C)ccn3)CC2)cc1 [Example 5.41],5000
23,CC(=O)N[C@@H](C)c1ccc(C2CCN(c3cccc(C)n3)CC2)cc1 [Example 5.42],210
24,COc1cccc(N2CCC(c3ccc([C@H](C)NC(C)=O)cc3)CC2)n1 [Example 5.43],630

row,SMILES,IC50 [nM]
1,CC(=O)N[C@@H](C)c1ccc(C2CCN(c3ccc(-c4ccc(Cl)cc4)cn3)CC2)cc1 [Example 5.44],70
2,CC(=O)N[C@@H](C)c1ccc(C2CCN(c3ccc(C)cn3)CC2)cc1 [Example 5.46],1600
3,CCOc1ccnc(N2CCC(c3ccc([C@H](C)NC(C)=O)cc3)CC2)c1 [Example 5.47],800
4,CCCOc1ccnc(N2CCC(c3ccc([C@H](C)NC(C)=O)cc3)CC2)c1 [Example 5.48],420
5,CC(=O)N[C@@H](C)c1ccc(C2CCN(c3ncccc3C)CC2)cc1 [Example 5.49],2600
6,"CC(=O)N[C@@H](C)c1ccc(C2CCN(c3ncc(-c4ccccc4)c(Cl)n3)CC2)cc1 [Example 5.50, (S)—N-(1-{4-[1-(4-chloro-5-phenyl-pyrimidin-2-yl)-piperidin-4-yl]-phenyl}-ethyl)-acetamide]",90
7,CC(=O)N[C@@H](C)c1ccc(C2CCN(c3cc(F)ncc3C)CC2)cc1 [Example 5.51],4800
8,COC(=O)c1cnc(N2CCC(c3ccc([C@H](C)NC(C)=O)cc3)CC2)cn1 [Example 5.53],7700
9,COC(=O)c1cncc(N2CCC(c3ccc([C@H](C)NC(C)=O)cc3)CC2)n1 [Example 5.54],9300
10,CCOC(=O)c1cnnc(N2CCC(c3ccc([C@H](C)NC(C)=O)cc3)CC2)c1 [Example 5.55],7600
11,CC(=O)N[C@@H](C)c1ccc(C2CCN(c3nc4ccc(C)cc4s3)CC2)cc1 [Example 5.56],1200
12,CCCOc1ccc(N2CCC(c3ccc([C@H](C)NC(=O)C4CC4)cc3)CC2)nc1 [Example 5.57],230
13,CCOc1ccc(N2CCC(c3ccc([C@H](C)NC(=O)C4CC4)cc3)CC2)nc1 [Example 5.58],860
14,"CC(=O)N[C@@H](C)c1ccc(C2CCN(c3cc(Cl)nc(N4CCCC4)n3)CC2)cc1 [Example 5.200, (S)—N-(1-{4-[1-(6-Chloro-2-pyrrolidin-1-yl-pyrimidin-4-yl)-piperidin-4-yl]-phenyl}-ethyl)-acetamide]",7500
15,CC(=O)N[C@@H](C)c1ccc(C2CCN(c3nc(N4CCCCC4)ncc3C(F)(F)F)CC2)cc1 [Example 5.201],790
16,"CCOc1ccc(N2CCC(c3ccc([C@H](C)NC(=O)CC#N)cc3)CC2)cc1 [Example 6.1, (S)-2-Cyano-N-(1-{4-[1-(4-ethoxy-phenyl)-piperidin-4-yl]-phenyl}-ethyl)-acetamide]",460
17,CCOc1ccc(N2CCC(c3ccc([C@H](C)NC(=O)c4ccco4)cc3)CC2)cc1 [Example 6.4],2100
18,CCOc1ccc(N2CCC(c3ccc([C@H](C)NC(=O)C4CCC4)cc3)CC2)cc1 [Example 6.7],770
19,CCOc1ccc(N2CCC(c3ccc([C@H](C)NC(=O)CC)cc3)CC2)cc1 [Example 6.8],190
20,CCOc1ccc(N2CCC(c3ccc([C@H](C)NC(=O)C4(C)CC4)cc3)CC2)cc1 [Example 6.9],150
21,CCOc1ccc(N2CCC(c3ccc([C@H](C)NC(=O)c4cn[nH]c4)cc3)CC2)cc1 [Example 6.10],250
22,CCOc1ccc(N2CCC(c3ccc([C@H](C)NC(=O)c4cncs4)cc3)CC2)cc1 [Example 6.11],340
23,CCOc1ccc(N2CCC(c3ccc([C@H](C)NC(=O)c4ccno4)cc3)CC2)cc1 [Example 6.12],1300
24,CCOc1ccc(N2CCC(c3ccc([C@H](C)NC(=O)CC4CC4)cc3)CC2)cc1 [Example 6.13],1100

# Same assay, conditions: IC50, ACC2 assay, hACC2 construct lacking 128 N-terminal amino acids, 25° C., 340 nm
row,SMILES,IC50 [nM]
1,CCOc1ccc(N2CCC(c3ccc([C@H](C)NC(=O)CF)cc3)CC2)cc1 [Example 6.14],190
